# Assay results taken from article PMC3017052, “A Novel Peptide Derived from Human Apolipoprotein E Is an Inhibitor of Tumor Growth and Ocular Angiogenesis” (PLoS ONE, 2011).
# Tested on: HUVEC
# Assay: Boyden chamber migration/invasion assay
# Assay type: cell-based, human
# Details: Boyden chamber transwell, 50 ng/mL VEGF, 16 hr at 37°C, apoEdp 6–100 µM; read-out: IC50, inhibition of VEGF-induced HUVEC migration and invasion
# Text: The complex process of new blood vessel formation involves migration and invasion of ECs. The inhibition of EC motility through migration and invasion could thus be expected to affect the angiogenic process. To evaluate the ability of apoEdp in blocking VEGF-induced HUVEC migration and invasion, we used a Boyden chamber transwell assay (Materials and Methods). We quantified the invasion of HUVECs across the transwell. Cells which invaded across the membrane were stained with hematoxylin and eosin stain and counted (Fig. 4A–B). […] All values were normalized to cell numbers of transwells exposed to EBM containing 1% FBS without apoEdp and VEGF.
# Figure 4 ApoEdp inhibits endothelial cell invasion. About 4×10^4 HUVECs were placed into each insert of Boyden chamber ([…]) (BD Biosciences) of 24-well transwell plate. The bottom chambers were filled with 600 µL medium supplemented with 50 ng/mL VEGF. The top chamber was seeded with approximately 4×10^4 HUVEC cells/well in 100 µL containing different concentrations of apoEdp and incubated at 37°C for 16 hs. HUVEC cells were then fixed and stained with H&E and counted under the microscope. […]
# Boyden chamber migration/invasion assays were performed. […] Transwell invaded cells were counted using an inverted microscope. Three independent areas per filter were counted, and the mean ± SEM number of migrated cells was calculated.
substance,measurement,value
Ac-LRKLRKRLLLRKLRKRLL-NH2 [apoEdp],IC50,~31.5 µM
